Data on one substance can be found in US5840699A, “Peptide derivatives” (Teikoku Hormone Mfg. Co. Ltd., priority 1995, dated 1998).

The assay deals with mouse leukemia P388 cells. As to the kind of experiment: Antitumor activity (increase in life-span) in mice transplanted with mouse leukemia P388 cells. The assay is classed as in vivo. To be noted: relative value of percent increase in life-span (ILS), dolastatin 10 ILS regarded as 1; P388 cells (10^6 per mouse) in abdominal cavity of CDF1 mice; drug intraperitoneally on first and fifth day; observed for 60 days. On the procedure:
0.1 ml (10^6 cells per mouse) each of mouse leukemia P388 cells was transplanted into the abdominal cavity of 7-weeks-old CDF1 mice. […] Then, the percent increase in life-span (ILS) was calculated from the results of observation according to the following equation. In the following equation, T designates the median number of days for which the mice of the drug-treated group survived, and C designates the median number of days for which the mice of the control group survived. [formula]
The antitumor activity of each drug is expressed as a relative value based on the antitumor activity of dolastatin 10 for which ILS is regarded as 1.

dolastatin 10 showed an Antitumor activity of 1.
